Common to all, as to type: cell-based
The target in one assay is adenosine 2a receptor (Homo sapiens, UniProt P29274). Put plainly: Agonist activity against adenosine 2a receptor (CHO cells, cAMP/SPAP reporter). As to conditions: CHO cells transfected with human receptor; basal cAMP via SPAP; mean of all the versions tested. The method, then:
(§1) (1) Agonist activity against adenosine 2a, adenosine 1 and adenosine 3 receptor subtypes.
(§2) The effect of test compounds was determined by their effects on basal levels of cAMP (A2a) or on forskolin-enhanced cAMP (A1 and A3) as reflected by changes in levels of SPAP.

A further assay concerns the target T1, adenosine 1 receptor (Homo sapiens, UniProt P30542).
T1 sequence (P30542 1-326): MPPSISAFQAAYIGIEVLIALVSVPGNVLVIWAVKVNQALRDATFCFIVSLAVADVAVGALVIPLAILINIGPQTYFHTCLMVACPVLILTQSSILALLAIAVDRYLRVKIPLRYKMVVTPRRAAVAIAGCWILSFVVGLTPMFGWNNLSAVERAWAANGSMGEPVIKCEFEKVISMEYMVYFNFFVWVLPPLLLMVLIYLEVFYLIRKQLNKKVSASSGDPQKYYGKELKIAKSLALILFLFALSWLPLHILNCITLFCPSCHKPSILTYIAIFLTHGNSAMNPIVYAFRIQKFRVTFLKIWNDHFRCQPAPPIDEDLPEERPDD
Put plainly: Agonist activity against adenosine 1 receptor (CHO cells, forskolin-enhanced cAMP/SPAP reporter). As to conditions: CHO cells transfected with human receptor; forskolin-enhanced cAMP via SPAP; mean of all the versions tested. On the procedure:
as §1, §2

The target of the next assay is T2, adenosine 3 receptor (Homo sapiens, UniProt P0DMS8).
T2 sequence (P0DMS8 1-318): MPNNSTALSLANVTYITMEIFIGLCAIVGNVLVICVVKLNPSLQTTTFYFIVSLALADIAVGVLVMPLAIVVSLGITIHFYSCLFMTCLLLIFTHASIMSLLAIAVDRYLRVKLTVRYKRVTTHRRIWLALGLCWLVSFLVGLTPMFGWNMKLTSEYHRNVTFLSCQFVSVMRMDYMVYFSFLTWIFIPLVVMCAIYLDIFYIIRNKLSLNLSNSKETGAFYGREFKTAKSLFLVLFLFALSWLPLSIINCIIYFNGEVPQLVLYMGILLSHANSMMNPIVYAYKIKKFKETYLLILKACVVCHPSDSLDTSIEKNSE
Put plainly: Agonist activity against adenosine 3 receptor (CHO cells, forskolin-enhanced cAMP/SPAP reporter). The following applies: CHO cells transfected with human receptor; forskolin-enhanced cAMP via SPAP; mean of all the versions tested. The method, then: as §1, §2

adenosine 2a receptor, sequence (P29274 whole entry): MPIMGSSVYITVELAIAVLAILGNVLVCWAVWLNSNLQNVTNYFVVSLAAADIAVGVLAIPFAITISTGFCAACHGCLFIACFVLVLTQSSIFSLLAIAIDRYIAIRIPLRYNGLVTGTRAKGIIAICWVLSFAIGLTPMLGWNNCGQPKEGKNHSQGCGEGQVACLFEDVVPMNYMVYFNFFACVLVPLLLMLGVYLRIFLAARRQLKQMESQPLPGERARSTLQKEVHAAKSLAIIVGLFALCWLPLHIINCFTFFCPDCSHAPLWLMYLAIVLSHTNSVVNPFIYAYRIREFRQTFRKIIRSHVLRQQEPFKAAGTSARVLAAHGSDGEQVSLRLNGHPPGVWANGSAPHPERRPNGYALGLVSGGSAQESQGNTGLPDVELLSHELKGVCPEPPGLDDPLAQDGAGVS

Turning to `CC(=O)O.CCn1nnc([C@H]2O[C@@H](n3cnc4c(NCCC(C)(C)C)nc(NCCNc5ccccn5)nc43)[C@H](O)[C@@H]2O)n1` [Example 51, (2R,3R,4S,5R)-2-{6-(3,3-Dimethyl-butylamino)-2-[2-(pyridin-2-ylamino)-ethylamino]-purin-9-yl}-5-(2-ethyl-2H-tetrazol-5-yl)-tetrahydro-furan-3,4-diol Acetate], the “A2a EC50 as a ratio of that of NECA” value on adenosine 2a receptor worked out at 1.46. The “A1 EC50 as a ratio of that of NECA” value on adenosine 1 receptor was determined as 144.00. Besides, at adenosine 3 receptor, the “A3 EC50 as a ratio of that of NECA” value was more than 42.

Consider `CCn1nnc(C2OC(n3cnc4c(NC5CCCC5)nc(NC5CCC(N)CC5)nc43)C(O)C2O)n1.O=CO.O=CO` [Example 101, (2R,3R,4S,5R)-2-[2-(trans-4-Amino-cyclohexylamino)-6-cyclopentylamino-purin-9-yl]-5-(2-ethyl-2H-tetrazol-5-yl)-tetrahydro-furan-3,4-diol bis(Formate)], for which the “A2a EC50 as a ratio of that of NECA” value on adenosine 2a receptor was found to be 1.51. At adenosine 1 receptor, the “A1 EC50 as a ratio of that of NECA” value turned out to be 39.00. Besides, at adenosine 3 receptor, the “A3 EC50 as a ratio of that of NECA” value was more than 195.

Regarding `CCn1nnc([C@H]2O[C@@H](n3cnc4c(NCCC(C)(C)C)nc(N[C@@H]5CCC[C@H]5O)nc43)[C@H](O)[C@@H]2O)n1.O=C(O)C(F)(F)F.O=C(O)C(F)(F)F` [Example 60], on adenosine 2a receptor, the “A2a EC50 as a ratio of that of NECA” value was found to be 4.24. In addition, the “A1 EC50 as a ratio of that of NECA” value on adenosine 1 receptor stood at 69.10. The “A3 EC50 as a ratio of that of NECA” value on adenosine 3 receptor was more than 385.

Regarding `CCn1nnc([C@H]2O[C@@H](n3cnc4c(N)nc(N[C@H]5CC[C@H](N)CC5)nc43)[C@H](O)[C@@H]2O)n1` [Example 53, (2R,3R,4S,5R)-2-[6-Amino-2-(trans-4-amino-cyclohexylamino)-purin-9-yl]-5-(2-ethyl-2H-tetrazol-5-yl)-tetrahydro-furan-3,4-diol], the “A2a EC50 as a ratio of that of NECA” value at adenosine 2a receptor is on record as 4.14. Moreover, the “A1 EC50 as a ratio of that of NECA” value at adenosine 1 receptor was found to be 298.30. Moreover, the “A3 EC50 as a ratio of that of NECA” value at adenosine 3 receptor is more than 960.

Turning to `CCn1nnc([C@H]2O[C@@H](n3cnc4c(N)nc(NC5CC6CCC5C6)nc43)[C@H](O)[C@@H]2O)n1.O=C(O)C(F)(F)F` (stereo partly drawn) [Example 19, (2R,3R,4S,5R)-2-[6-Amino-2-(bicyclo[2.2.1]hept-2-ylamino)-purin-9-yl]-5-(2-ethyl-2H-tetrazol-5-yl)-tetrahydro-furan-3,4-diol Trifluoroacetate], at adenosine 2a receptor, the “A2a EC50 as a ratio of that of NECA” value is on record as 0.21. Besides, on adenosine 1 receptor, the “A1 EC50 as a ratio of that of NECA” value was determined as 85.6. Besides, the “A3 EC50 as a ratio of that of NECA” value on adenosine 3 receptor is on record as more than 382.

`CCC(CC)Nc1nc(NC2CCN(Cc3ccccc3)C2)nc2c1ncn2C1OC(c2nnn(CC)n2)C(O)C1O.O=CO.O=CO` [Example 65, (2R,3R,4S,5R)-2-[2-(1-Benzyl-pyrrolidin-3-ylamino)-6-(1-ethyl-propylamino)-purin-9-yl]-5-(2-ethyl-2H-tetrazol-5-yl)-tetrahydro-furan-3,4-diol bis(Formate)]: the “A2a EC50 as a ratio of that of NECA” value on adenosine 2a receptor amounted to 2.46. The “A1 EC50 as a ratio of that of NECA” value at adenosine 1 receptor is given as 61.50. For the same compound, the “A3 EC50 as a ratio of that of NECA” value on adenosine 3 receptor is recorded as more than 158.

With `CCC(CC)Nc1nc(NCCc2cn(C)cn2)nc2c1ncn2[C@@H]1O[C@H](c2nnn(C)n2)[C@@H](O)[C@H]1O.O=CO` [Example 33, (2R,3R,4S,5R)-2-{6-(1-Ethyl-propylamino)-2-[2-(1-methyl-1H-imidazol-4-yl)-ethylamino]-purin-9-yl}-5-(2-methyl-2H-tetrazol-5-yl)-tetrahydro-furan-3,4-diol Formate], on adenosine 2a receptor, the “A2a EC50 as a ratio of that of NECA” value is reported as 0.16. In addition, the “A1 EC50 as a ratio of that of NECA” value at adenosine 1 receptor is more than 4045. Also, the “A3 EC50 as a ratio of that of NECA” value at adenosine 3 receptor was more than 172.

On to `CCn1nnc(C2OC(n3cnc4c(NCCC5CCCCC5)nc(NC5CCNC5)nc43)C(O)C2O)n1` [Example 73, (2R,3R,4S,5R)-2-[6-(2-Cyclohexyl-ethylamino)-2-(pyrrolidin-3S-ylamino)-purin-9-yl]-5-(2-ethyl-2H-tetrazol-5-yl)-tetrahydro-furan-3,4-diol bis(Formate)], for which the “A2a EC50 as a ratio of that of NECA” value at adenosine 2a receptor worked out at 5.75. Moreover, at adenosine 1 receptor, the “A1 EC50 as a ratio of that of NECA” value was determined as 818.40. In addition, at adenosine 3 receptor, the “A3 EC50 as a ratio of that of NECA” value is more than 171.

For the origin of these results see patent publication US6528494B2 (priority 1996, dated 2003).
